From PubChem BioAssay (NCI)
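Method: 48-hour compound exposure of cells in 96-well plates, five concentrations, linear interpolation of endpoints. Here, GI50 denotes the concentration required for 50% inhibition of growth. Definition used: TGI = concentration required for complete inhibition of growth.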

Legend:
Assay in all cases: growth of human tumour cells (NCI), 48 h
[1] = system: 786-0 renal
[2] = system: A498 renal
[3] = system: A549 NSCLC
[4] = system: ACHN renal
[5] = system: BT-549 breast
[6] = system: CAKI-1 renal
[7] = system: CCRF-CEM leukemia
[8] = system: COLO 205 colon
[9] = system: DU-145 prostate
[10] = system: EKVX NSCLC
[11] = system: HCC-2998 colon
[12] = system: HCT-116 colon
[13] = system: HCT-15 colon
[14] = system: HL-60(TB) leukemia
[15] = system: HOP-62 NSCLC
[16] = system: HOP-92 NSCLC
[17] = system: HS 578T breast
[18] = system: HT29 colon
[19] = system: IGROV1 ovarian
[20] = system: K-562 leukemia
[21] = system: KM12 colon
[22] = system: LOX IMVI melanoma
[23] = system: M14 melanoma
[24] = system: MALME-3M melanoma
[25] = system: MCF7 breast
[26] = system: MDA-MB-231 breast
[27] = system: MDA-MB-435
[28] = system: MDA-MB-468 breast
[29] = system: MOLT-4 leukemia
[30] = system: NCI-H226 lung
[31] = system: NCI-H23 lung
[32] = system: NCI-H460 lung
[33] = system: NCI-H522 lung
[34] = system: NCI/ADR-RES ovarian
[35] = system: OVCAR-3 ovarian
[36] = system: OVCAR-4 ovarian
[37] = system: OVCAR-5 ovarian
[38] = system: OVCAR-8 ovarian
[39] = system: PC-3 prostate
[40] = system: RPMI-8226 leukemia
[41] = system: RXF 393 renal
[42] = system: SF-268 CNS
[43] = system: SF-295 CNS
[44] = system: SF-539 CNS
[45] = system: SK-MEL-2 melanoma
[46] = system: SK-MEL-28 melanoma
[47] = system: SK-MEL-5 melanoma
[48] = system: SK-OV-3 ovarian
[49] = system: SN12C renal
[50] = system: SNB-19 CNS
[51] = system: SNB-75 CNS
[52] = system: SR leukemia
[53] = system: SW-620 colon
[54] = system: T-47D breast
[55] = system: TK-10 renal
[56] = system: U251 CNS
[57] = system: UACC-257 melanoma
[58] = system: UACC-62 melanoma
[59] = system: UO-31 renal

C#C[C@]1(O)CC[C@H]2[C@@H]3CC=C4c5sc(Nc6ccc(C(F)(F)F)cn6)nc5CC[C@]4(C)[C@H]3CC[C@@]21C
GI50 [1]: 1.47 µM | TGI [1]: 3.45 µM | GI50 [2]: 2.43 µM | TGI [2]: 5.45 µM | GI50 [3]: 6.95 µM | TGI [3]: > 100 µM | GI50 [4]: 3.34 µM | TGI [4]: 24.2 µM | GI50 [5]: 2.54 µM | TGI [5]: 8.13 µM | GI50 [6]: 1.92 µM | TGI [6]: 5.62 µM | GI50 [7]: 2.76 µM | TGI [7]: > 100 µM | GI50 [8]: 2.75 µM | TGI [8]: 13.8 µM | GI50 [9]: 4.6 µM | TGI [9]: 22.5 µM | GI50 [10]: 2.15 µM | TGI [10]: 8.58 µM | GI50 [11]: 4.82 µM | TGI [11]: 18.3 µM | GI50 [12]: 3.22 µM | TGI [12]: 13.7 µM | GI50 [13]: 1.72 µM | TGI [13]: 4.96 µM | GI50 [14]: 2.67 µM | TGI [14]: 7.65 µM | GI50 [15]: 2.32 µM | TGI [15]: 11.3 µM | GI50 [16]: 5.41 µM | TGI [16]: 26.1 µM | GI50 [17]: 1.45 µM | TGI [17]: 5.27 µM | GI50 [18]: 3.85 µM | TGI [18]: 30.5 µM | GI50 [19]: 4.16 µM | TGI [19]: 21 µM | GI50 [20]: 2.73 µM | TGI [20]: > 100 µM | GI50 [21]: 4.49 µM | TGI [21]: 18.4 µM | GI50 [22]: 1.84 µM | TGI [22]: 4.25 µM | GI50 [23]: 2.57 µM | TGI [23]: 9.92 µM | GI50 [24]: 2.89 µM | TGI [24]: 14.1 µM | GI50 [25]: 1.96 µM | TGI [25]: 4.49 µM | GI50 [26]: 1.88 µM | TGI [26]: 4.44 µM | GI50 [27]: 3.04 µM | TGI [27]: 11.9 µM | GI50 [28]: 3.16 µM | TGI [28]: 18.9 µM | GI50 [29]: 2.62 µM | TGI [29]: 13.7 µM | GI50 [30]: 3.91 µM | TGI [30]: 19.9 µM | GI50 [31]: 3.08 µM | TGI [31]: 15.5 µM | GI50 [32]: 2.86 µM | TGI [32]: 10.6 µM | GI50 [33]: 3.97 µM | TGI [33]: 16.2 µM | GI50 [34]: 3.76 µM | TGI [34]: 46 µM | GI50 [35]: 4.68 µM | TGI [35]: 35.1 µM | GI50 [36]: 3.65 µM | TGI [36]: 31 µM | GI50 [37]: 4.48 µM | TGI [37]: 23.8 µM | GI50 [38]: 9.96 µM | TGI [38]: > 100 µM | GI50 [39]: 1.98 µM | TGI [39]: > 100 µM | GI50 [40]: 0.564 µM | TGI [40]: > 100 µM | GI50 [41]: 0.723 µM | TGI [41]: 2.54 µM | GI50 [42]: 4.04 µM | TGI [42]: 32.6 µM | GI50 [43]: 0.565 µM | TGI [43]: 2.07 µM | GI50 [44]: 0.89 µM | TGI [44]: 2.66 µM | GI50 [45]: 2.91 µM | TGI [45]: 10.6 µM | GI50 [46]: 1.39 µM | TGI [46]: 2.93 µM | GI50 [47]: 2.09 µM | TGI [47]: 4.8 µM | GI50 [48]: 2.83 µM | TGI [48]: 26.7 µM | GI50 [49]: 4.77 µM | TGI [49]: 19.2 µM | GI50 [50]: 2.9 µM | TGI [50]: 12.2 µM | GI50 [51]: 1.27 µM | TGI [51]: 12.7 µM | GI50 [52]: 2.47 µM | TGI [52]: 20.4 µM | GI50 [53]: 2.04 µM | TGI [53]: 5.03 µM | GI50 [54]: 3.58 µM | TGI [54]: 18.4 µM | GI50 [55]: 6.83 µM | TGI [55]: 91.2 µM | GI50 [56]: 1.72 µM | TGI [56]: 11.3 µM | GI50 [57]: 3.85 µM | TGI [57]: 18.4 µM | GI50 [58]: 1.95 µM | TGI [58]: 4.5 µM | GI50 [59]: 3.09 µM | TGI [59]: 13.7 µM
